Counter-ions that a name gives are not always drawn.
Test system: subcutaneous Calu-6 tumors which harbor a K-RAS mutation
Assay: Efficacy study in Calu-6 K-RAS mutated human xenograft lung adenocarcinoma model
Type: in vivo, Balb/c nude mice
Details: Compound B maleate alone, 2.5 mg/kg (free base) p.o. BID, Group 2
Description: To determine the effects of Compound B Maleate and Compound A, alone or in combination, on growth of subcutaneous Calu-6 tumors which harbor a K-RAS mutation in Balb/c nude mice in an Efficacy Study.
Experimental designs for the Efficacy study are illustrated in Table 2.
Each mouse was inoculated subcutaneously at the right flank with Calu-6 tumor cells (5×10^6 cells in 0.1 ml 50% Matrigel® in MEM). Tubes containing suspended cells and syringes were kept on ice to avoid solidification of Matrigel®. 2× overage was implemented for cell injection. When mean tumor volume reached the indicated sizes in Table 2, animals were randomly assigned to the indicated groups in Table 2 and received the first dosing. […]
Tumor volumes and mouse body weights were measured three times weekly after tumors became palpable and before randomization and grouping. Afterwards, tumor volumes and mouse body weights were measured twice weekly to termination, in two dimensions using a caliper, and the tumor volumes were expressed in mm^3 using the formula: V=0.5 L×W^2, where L and W were the long and short diameters of the tumor, respectively. The TGI value for the drug A-treated group at Day X was calculated as following: TGI (%)={1−[mTV(drug at Day X)−mTV(drug at Day 0)]/[mTV(veh at Day X)−mTV(veh at Day 0)]}×100, where mTV represented mean tumor volume. […]

**Q.** Which “inhibition of Calu-6 tumor growth compared to the vehicle control” value does the source give for `O=C1CCc2c(Oc3ccc4c(c3)[C@@H]3[C@H](C4)[C@H]3c3nc4ccc(C(F)(F)F)cc4[nH]3)ccnc2N1` [Compound B maleate] here?
**A.** significant inhibition

Source: patent US12667560B2, “Co-administration of mirdametinib and lifirafenib for use in treating cancers” (BeiGene, Ltd., priority 2020, dated 2026)
